The values that follow come from US20250073207A1, “PSILOCIN BENZOATE FORMULATION FOR I[…]” (Eleusis Therapeutics US, Inc., priority 2022, published 2025).

A short description of series [1]: Stability in solution of psilocin free base versus benzoate salt. The note with it: prone to oxidation.
Series [2] is described as follows: Solubility testing of psilocin benzoate salt in potential intravenous vehicles.
Experimental: Solubility of the psilocin benzoate salt was assessed in a range of potential intravenous vehicles. […] Each vehicle was degassed by sonication prior to use.
The pH of each formulation was measured and samples for assay analysis from each formulation were taken following preparation and then again following 6 hours bench top storage at ambient temperature.

Structures are written as SMILES.

Regarding `CN(C)CCc1c[nH]c2cccc(O)c12` [Psilocin], the stability in solution entry in series [1] is given as “highly unstable in solution”.
Regarding `CN(C)CCc1c[nH]c2cccc(O)c12.O=C(O)c1ccccc1` [psilocin benzoate], in series [1], the stability in solution result was “more stable”. Moreover, the “solubility under saturating conditions” value in series [2] (all of the vehicles on test) is recorded as “partially soluble”. In addition, the limit of solubility entry in series [2] (in aqueous solution) is given as “approximately 4 mg/ml”.
